We go through 2 compounds from ChEMBL document CHEMBL5257138, “Cytosolic Enzymes Generate Cannabinoid Metabolites 7-Carboxycannabidiol and 11-Nor-9-carboxytetrahydrocannabinol” (ACS Med Chem Lett, 2023).

Common to all, as to format: ADME, subcellular
Series [1] can be described thus: Drug metabolism in human liver S9 fraction assessed as reduction in metabolite 11-COOH-THC formation by measuring hydralazine IC50 incubated for 20 mins in presence of NAD+ by LC-MS/MS analysis.
The nature of series [2]: Drug metabolism in human liver S9 fraction assessed as reduction in metabolite 11-COOH-THC formation by measuring WIN18446 IC50 incubated for 10 mins in presence of NAD+ by LC-MS/MS analysis.
Series [3] in a line: Drug metabolism in human liver S9 fraction assessed as metabolite 11-COOH-THC formation at 1 uM incubated for 10 mins in presence of NAD+ by LC-MS/MS analysis. To be noted: s9, 10 min.
Series [4] is described as follows: Drug metabolism in human liver cytosol assessed as reduction in metabolite 7-COOH-CBD formation by measuring WIN18446 IC50 in presence of NAD+ measured after 30 mins by LC-MS/MS analysis.
The nature of series [5]: Drug metabolism in human liver S9 fraction assessed as metabolite 7-COOH-CBD formation at 1 uM incubated for 20 mins in presence of NADPH by LC-MS/MS analysis. The following applies: s9, 20 min.
Series [6] is described as follows: Drug metabolism in human liver cytosol assessed as metabolite 7-COOH-CBD formation at 1 uM incubated for 20 mins in presence of NADPH and NAD+ by LC-MS/MS analysis.
Series [7] in a line: Drug metabolism in human liver S9 fraction assessed as metabolite 7-COOH-CBD formation at 1 uM incubated for 20 mins in presence of NADPH and NAD+ by LC-MS/MS analysis. To be noted: s9, 20 min.

As for `CCCCCc1cc(O)c2c(c1)OC(C)(C)[C@@H]1CCC(CO)=C[C@@H]21`, the IC50 is 0.053 µM in series [1] and above 60 µM in series [2]. In series [3], the Drug metabolism entry is on record as “Metabolite_Detected”.

On to `C=C(C)[C@@H]1CCC(CO)=C[C@H]1c1c(O)cc(CCCCC)cc1O`, for which the IC50 in series [4] amounted to 0.285 µM. The Drug metabolism result in series [5] was “Metabolite_Notdetected”; in series [6], “Metabolite_Detected”; in series [7], “Metabolite_Detected”.
